As a reminder, the GI50 is the concentration that inhibits growth by half. The TGI is the concentration giving total growth inhibition.

The values that follow come from PubChem BioAssay (NCI).

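How tested: cells in 96-well plates exposed to compound for 48 hours at five concentrations. GI50 = concentration required for 50% inhibition of growth. TGI is the concentration that stops growth completely.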

Assay in all cases: DTP human tumour cell line panel, 48 h
In test [1] the test system is HOP-92 NSCLC.
Test [2] concerns IGROV1 ovarian.
Test [3] relates to A549 NSCLC.
The test system of test [4] is MOLT-4 leukemia.
In test [5] the test system is KM20L2 colon.
For test [6], the system named is U251 CNS.
Test [7] deals with MALME-3M melanoma.
Test [8] has as its system ACHN renal.
Test [9] deals with BT-549 breast.
Test [10] deals with MDA-MB-231 breast.

As to `Cc1cc([NH-])c([NH-])cc1C.[Cl][Pt+2][Cl]`, the GI50 in test [1] was 16.2 µM; in test [2], 15.2 µM; in test [3], 49 µM; in test [4] it was 5.07 µM; in [5] it was 20.2 µM; in [6] it was 5.24 µM. In [7], the GI50 was 18 µM. Also, the TGI in test [1] was 40.7 µM; in [2] it was 45.4 µM; in test [3] it was over 100 µM; in test [4], 41.6 µM; in [5] it was over 81.9 µM; in test [6], 17 µM. Further, the TGI in test [7] is 36.6 µM.

`Cc1ccc(C)c(NC(=O)C(=O)C(C(=O)c2ccc3ccccc3c2)C2OC(=O)c3ccccc32)c1` (stereo unspecified): the TGI was 78 µM in test [1]; 40.5 µM in [2]; 87.1 µM in test [8]; 45.7 µM in test [3]; over 100 µM in [4]; 53.3 µM in test [5]. Besides, the TGI in test [6] was found to be 16.2 µM.

`CCCCCOc1ccc(C=Nc2ccc(CCc3ccc(N=Cc4ccc(OCCCCC)cc4)cc3)cc2)cc1`: the TGI in [1], in [2], in test [3], in [4], in test [5] and in test [6] was over 100 µM in each case. In [7], this compound gave a TGI of over 100 µM.

For the compound `COC(=O)Cc1cc(O)c2c(c1O)C(=O)c1ccccc1C2=O`, the TGI was over 100 µM in test [9]; 56 µM in test [1]; over 100 µM in test [2]; 97.5 µM in test [10]; over 77.9 µM in test [8]; over 100 µM in test [3]. For the same compound, the concentration for total growth inhibition (TGI) in test [4] is over 100 µM; in [5], over 100 µM; in test [6] it was over 93.2 µM; in test [7], over 100 µM.

As for `COc1ccc(N2CC(=O)N(C(=O)COc3ccc(OCC(=O)N4C(=O)CN(c5ccc(OC)cc5)C4=S)cc3)C2=S)cc1`, the TGI in test [9], in test [1], in [2], in [10], in [8] and in test [3] was over 100 µM each time. The TGI in test [4], in test [6] and in test [7] was over 100 µM each time.

For the compound `CCO/C(=N/S(=O)(=O)C(F)(F)F)N(C(C)C)C(C)C`, the TGI in test [9], in [1], in test [2], in test [10], in [8] and in test [3] was over 100 µM in each case. In addition, the total growth inhibition concentration (TGI) in [4], in test [6] and in test [7] was over 100 µM throughout.

With `Fc1ccc(C(OCCN2CCN(CCCc3ccccc3)CC2)c2ccc(F)cc2)cc1`, the TGI in test [9] was determined as 19.3 µM; in test [1], 11.6 µM; in [2], 22.2 µM; in [10], 11.3 µM; in [8] it was 17.4 µM; in test [3], 14 µM. The TGI in test [4] was found to be 19 µM; in test [6] it was 14.3 µM; in [7], 17 µM.

For `CC1CC[C@@]2(OC1)OC1C[C@H]3[C@@H]4CC=C5CC(OC6OC(CO)C(OC7OC(CO)C(O)C(OC8OCC(O)C(O)C8O)C7OC7OC(CO)C(OC8OC(C)C(OC9OC(C)C(O)C(O)C9O)C(O)C8O)C(O)C7O)C(O)C6O)CCC5(C)[C@H]4CCC3(C)C1[C@@H]2C` (stereo partly specified), the concentration for total growth inhibition (TGI) in [9] was 16.4 µM; in test [1], 14.8 µM; in test [2], 16.6 µM; in test [10], 11.9 µM; in test [8], 9.92 µM; in test [3], 14.5 µM. For the same compound, the TGI was 24.7 µM in test [4], 16.3 µM in [6] and 20.1 µM in test [7].

`COC(=O)[C@H]1C=NN[C@@H]1C(=O)N1[C@H]2CC3CC[C@@]2(CS1(=O)=O)C3(C)C`: the TGI in test [9], in test [1], in [2], in test [10], in test [8] and in test [3] was over 100 µM throughout. The TGI in [4], in [6] and in test [7] was over 100 µM in each case.

For `O=C(O)CN(CC(=O)O)C1CCCCC1N1CC(=O)OC(=O)C1` (stereo unspecified), the TGI in [9], in [1], in test [2], in test [10], in test [8] and in test [3] was over 100 µM each time. For the same compound, the TGI in [4], in test [6] and in [7] was over 100 µM throughout.

Turning to `Cc1cc(C)nc(NS(=O)(=O)c2ccc(NC(=O)c3c4ccccc4nc4ccccc34)cc2)n1`, the TGI in [9], in test [1], in [2], in [10], in test [8] and in test [3] was over 100 µM each time. Moreover, the TGI in test [4], in test [6] and in test [7] was over 100 µM each time.

Take `O=[N+]([O-])c1ccccc1OCCOc1ccccc1[N+](=O)[O-]`: the TGI in [9], in [1], in test [2], in test [10], in test [8] and in [3] was over 100 µM in each case. The TGI in [4], in test [6] and in [7] was over 100 µM each time.

`N#Cc1c(-c2ccc(Cl)cc2)c2c(nn3c4ccc5ccccc5c4nnc23)[nH]c1=O`: the TGI in test [9] was determined as 2.92 µM; in [1], 6.72 µM; in test [2], 4.06 µM; in test [10], 20.6 µM; in [8] it was 8.76 µM; in test [3], 20.8 µM. Also, the values for the total growth inhibition concentration (TGI) in [4], in test [6] and in test [7] were over 46.4 µM, 5.38 µM and 3.83 µM, respectively.

Regarding `CCOC(=O)C(C#N)(Cc1c[nH]c2ccccc12)NC(C)=O` (stereo unspecified), the TGI in test [1], in test [2], in [8], in test [4], in [5] and in test [6] was over 100 µM throughout. The compound also came in with a concentration for total growth inhibition (TGI) in test [7] of over 100 µM.
